From US12024506B2, “Compounds” (Oxford University Innovation Limited, priority 2018, dated 2024)

How the values were obtained:
[1] = test system: H358 cells (ATCC CRL-5807); experiment: Cell viability assay 1 (CellTiter-Glo), H358 cells; type: cell-based; conditions: Homo sapiens, NCI-H358, 48 h, first value of the cell, read-out: Cell Viability H358 (concentration that decreases cell viability by 50%)
Method: (§1) Cells (A549 ATCC CCL-185) are cultured in Dulbecco's Modified Eagle's Medium plus 10% foetal calf serum and 2 mM L-glutamine at 37° C., 5% CO2. Cells are plated onto white clear bottom 96-well plates (5000 cells/well in 200 μl media) and left to adhere overnight at 37° C., 5% CO2. Next day, test compound (1 μl at 200× concentration in 100% DMSO) is added to give final test compound concentration 1× in 0.5% DMSO. After 48 h of incubation at 37° C., 5% CO2, 20 μl CellTiter-Glo reagent (Promega G7572) is added into each well. Plates are incubated at room temperature with shaking for 30 min and then luminescence is read using a PheraStar plate reader. The concentration of compounds that decrease cell viability by 50% is calculated from dose response curves generated using Dotmatics data analysis software.
In the H358 cell assay, cells (ATCC CRL-5807) are cultured in RPMI-1640 medium plus 10% foetal calf serum and 2 mM L-glutamine at 37° C., 5% CO2.

[2] = test system: DLD1 cells (ATCC CCL-221); experiment: Cell viability assay 1 (CellTiter-Glo), DLD1 cells; type: cell-based; conditions: Homo sapiens, DLD-1 cells, 48 h, second value of the cell, read-out: Cell Viability DLD-1 (concentration that decreases cell viability by 50%)
Method: as §1
In the DLD1 cell assay, cells (ATCC CCL-221) are cultured in RPMI-1640 medium plus 10% foetal calf serum and 2 mM L-glutamine at 37° C., 5% CO2.

[3] = target: T1, GST-human KRas166 (G12V) GPPNHP (Homo sapiens, UniProt P01116, G12V); experiment: KRas small-molecule screening by SPR (Biacore T200); type: binding; conditions: compound 100 uM, 5% DMSO buffer; immobilised GST-KRas166 (G12V) GPPNHP
T1 construct: made in house; host or cells: E. coli C41(DE3)
Method in brief: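 GST-KRas166 G12V loaded with GPPNHP, captured on anti-GST CM5 chip at 10,000–15,000 RU, GST reference channel. Compounds run at 100 uM in buffer with 100 mM NaCl, 5 mM MgCl2, 5% DMSO, with DMSO solvent correction; Rmax for 1:1 binding taken as 63 RU.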

| Compound | IC50 [1] [µM] | IC50 [2] [µM] | SPR Response Units [3] [Response Units] |
| --- | --- | --- | --- |
| COc1nc(-c2cccc3c2OC(CNC(=O)C2CCOCC2)CO3)ccc1Nc1cccc(CN(C)C)c1 (stereo not drawn) [Example 84, Tetrahydro-pyran-4-carboxylic acid {8-[5(3-dimethylamino-methyl-phenylamino)-6-methoxy-pyridin-2-yl]-2,3-dihydro-benzo[1,4]dioxin-2-ylmethyl}-amide] | 33 | 20 | 59 |
| COc1nc(-c2cccc3c2OCCO3)ccc1Nc1cccc(CNCC2CCNC(=O)C2)c1 (stereo not drawn) [Example 194, 4-({3-[6-(2,3-Dihydro-benzo[1,4]dioxin-5-yl)-2-methoxy-pyridin-3-ylamino]-benzylamino}-methyl)-piperidin-2-one] | > 150 | 11.2 | 359 |
| CN(C)Cc1cccc(CN2CCN(c3cccc4c3OCCO4)CC2)c1 [Example 157, {3-[4-(2,3-Dihydro-benzo[1,4]dioxin-5-yl)-piperazin-1-ylmethyl]-benzyl}-dimethyl-amine] | > 150 | > 150 | 7 |
| CN1CCN(Cc2ccc(C(=O)NCC3COc4cccc(-c5cn(Cc6ccccc6)cn5)c4O3)o2)CC1 (stereo not drawn) [Example 138, 5-(4-Methyl-piperazin-1-ylmethyl)-furan-2-carboxylic acid[8-(1-benzyl-1H-imidazol-4-yl)-2,3-dihydro-benzo[1,4]dioxin-2-ylmethy]-amide] | > 100 | 18 | 238 |
| COc1nc(-c2cccc3c2OCCO3)ccc1Nc1ccc(C(=O)NCc2cn[nH]c2)cc1 [Example 160] | 20.7 | 11 | 89 |
| COc1nc(-c2cccc3c2OCCO3)ccc1Nc1cccc(CNCC2CCC(=O)N2)c1 (stereo not drawn) [Example 192, 5-({3-[6-(2,3-Dihydro-benzo[1,4]dioxin-5-yl)-2-methoxy-pyridin-3-ylamino]-benzylamino}-methyl)-pyrrolidin-2-one] | > 150 | 11.4 | 321 |
| COc1nc(-c2cccc3c2OC(CNC(=O)C2CCOCC2)CO3)ccc1Nc1ccc(CNCC2COCCN2)cc1 (stereo not drawn) [Example 127, Tetrahydro-pyran-4-carboxylic acid{8-[6-methoxy-5-(4-{[(morpholin-3-ylmethyl)-amino]-methyl}-phenylamino)-pyridin-2-yl]-2,3-dihydro-benzo[1,4]dioxin-2-ylmethyl}-amide] | 16.9 | 18.9 | 205 |
| COc1nc(-c2cccc3c2OCCO3)ccc1Nc1cccc(C(=O)NCC2CCN(C(C)=O)CC2)c1 [Example 167, N-(1-Acetyl-piperidin-4-ylmethyl)-3-[6-(2,3-dihydro-benzo[1,4]dioxin-5-yl)-2-methoxy-pyridin-3-ylamino]-benzamide] | 15.8 | 3.5 | 73 |
| COc1cc(NC(=O)N[C@@H]2CC[C@H](NC(=O)OCc3ccccc3)C2)cc(-c2cccc3c2OC(CNC(=O)C2CCOCC2)CO3)n1 (stereo partly drawn) [Example 100, ((1S,3R)-3-{3-[2-Methoxy-6-(3-{[(tetrahydro-pyran-4-carbonyl)-amino]-methyl}-2,3-dihydro-benzo[1,4]dioxin-5-yl)-pyridin-4-yl]-ureido}-cyclopentyl)-carbamic acid benzyl ester] | 28 | 5 | 97 |
| NCc1ccc(C(=O)N2CCN(c3cccc4c3OCCO4)CC2)cc1 [Example 184, (4-Aminomethyl-phenyl)-[4-(2,3-dihydro-benzo[1,4]dioxin-5-yl)-piperazin-1-yl]-methanone] | 3.6 | 1.2 | 10 |
| COc1nc(-c2cccc3c2OCCO3)ccc1Nc1ccc(Cn2ccnc2)cc1 [Example 58, [6-(2,3-Dihydro-benzo[1,4]dioxin-5-yl)-2-methoxy-pyridin-3-yl]-(4-imidazol-1-ylmethyl-phenyl)-amine] | 19 | 16.2 | 269 |
